Assay results published in publication PMC12627933, “A First-In-Human Study of the SUMOylation Inhibitor Subasumstat in Patients with Advanced/Metastatic Solid Tumors or Relapsed/Refractory Hematologic Malignancies” (Cancer Research Communications, 2025).

Experiments:
[1] = test system: tumor microenvironment (TME); assay: Tumor microenvironment in paired tumor biopsies (multiplex immunofluorescence, PD-L1 22C3 IHC CPS); assay type: in vivo, human
Protocol: Blood samples for subasumstat–SUMO adduct formation and SUMO2/3 inhibition assessments were collected before dose and at 1, 4, and 8 hours after the infusion on C1D1 and C1D8. Blood samples for additional biomarker analyses were collected before dose on C1D1 and C1D8 and at 4, 8, and 24 hours after infusion on C1D1 and C1D8. Skin biopsies (used as surrogate tissue for solid tumors) were collected at screening and on C1D8 at 2 hours (±30 minutes) after end of infusion, and tumor biopsies were collected at screening and cycle 2 day 8 (C2D8; +7 days; whenever possible). In blood samples, a custom flow cytometry assay was utilized for detecting target engagement and SUMOylated protein levels in lymphocytes (including T-, B-, and NK-cell subsets). The assay included a PE-conjugated antibody specifically recognizing the SUMO–subasumstat adduct (MIL-113, anti–cysteinyl-TAK-981, Epitomics; refs. [14], [15], [22]) and an AF488-conjugated antibody recognizing SUMO2/3 conjugates (MBL International, cat. #M114-3, RRID: AB_592769). Peripheral blood cells were lysed/fixed, permeabilized (BD Biosciences), and stained with MIL-113 and M114-3 and with antibodies against CD45, CD3, CD19, CD16/CD56, and CD14. IHC assays for SUMO–subasumstat adduct and SUMO2/3 inhibition in skin biopsies and tumors were performed using MIL-113 and M114-3 antibodies. Activation of the IFNI pathway was assessed in peripheral blood by analysis of gene expression data (PanCancer IO 360 panel by NanoString for phase I and whole-transcriptome RNA sequencing data for phase II). Type I IFN gene signature was computed using geometric mean of the following genes: CCL2, CXCL10, DDX58, IRF7, ISG15, STAT1, and STAT2. These seven IFNI-regulated genes were selected prior to the trial, based on in vitro studies of the effect of subasumstat on human blood from 10 healthy donors analyzed on the NanoString PanCancer IO 360 panel. Plasma chemokines and cytokines were measured using the MesoScale Discovery platform (pro-inflammatory and chemokine panels, BioAgilytix). For assessment of NK- and T-cell activation, cells were suspended in buffer and incubated with the following monoclonal antibodies: APC-H7 mouse anti–human CD45 (BD Biosciences, cat. #560274), APC mouse anti–human CD69 (BD Biosciences, cat. #555533), BV421 mouse anti–human CD56 (BD Biosciences, cat. #562751), mouse anti–human CD16 PerCP-Cy5.5 (BD Biosciences, cat. #338440), BV510 mouse anti–human CD4 (BD Biosciences, cat. #563094), BV605 mouse anti–human CD8 (BD Biosciences, cat. #564116), and Alexa Fluor 700 anti–mouse CD3 antibody (BioLegend, cat. #100215), prior to assessment by flow cytometry using the BD Scientific FACSCanto flow cytometer (RRID: SCR_018055). Tumor PD-L1 expression level was assessed in paired tumor biopsies using the 22C3 PD-L1 IHC assay; combined positive score (CPS) was calculated for baseline and on-treatment tumor samples. The immune landscape in the tumor microenvironment (TME) was assessed using an integrated RNAscope and 27-marker MultiOmyx immunofluorescence panel.

[2] = test system: macrophages and NK cells; set-up: method as in PMID 35226739; conditions: IFNI-dependent innate immune activation; cited from earlier work
[3] = test system: lymphoma and pancreatic cancer xenografts; set-up: method as in PMID 33631934; conditions: cited from earlier work
[4] = test system: NK cells and T cells; assay: NK- and T-cell activation (CD69+ cells) in peripheral blood by flow cytometry; assay type: in vivo, human
Protocol: Blood samples for subasumstat–SUMO adduct formation and SUMO2/3 inhibition assessments were collected before dose and at 1, 4, and 8 hours after the infusion on C1D1 and C1D8. Blood samples for additional biomarker analyses were collected before dose on C1D1 and C1D8 and at 4, 8, and 24 hours after infusion on C1D1 and C1D8. Skin biopsies (used as surrogate tissue for solid tumors) were collected at screening and on C1D8 at 2 hours (±30 minutes) after end of infusion, and tumor biopsies were collected at screening and cycle 2 day 8 (C2D8; +7 days; whenever possible). […] Activation of the IFNI pathway was assessed in peripheral blood by analysis of gene expression data (PanCancer IO 360 panel by NanoString for phase I and whole-transcriptome RNA sequencing data for phase II). […] These seven IFNI-regulated genes were selected prior to the trial, based on in vitro studies of the effect of subasumstat on human blood from 10 healthy donors analyzed on the NanoString PanCancer IO 360 panel. Plasma chemokines and cytokines were measured using the MesoScale Discovery platform (pro-inflammatory and chemokine panels, BioAgilytix). […] Tumor PD-L1 expression level was assessed in paired tumor biopsies using the 22C3 PD-L1 IHC assay; combined positive score (CPS) was calculated for baseline and on-treatment tumor samples. […]

[5] = cervical cancer and melanoma biopsies

Which results are given for Cc1sc(C(=O)c2cncnc2N[C@@H]2C[C@H](COS(N)(=O)=O)[C@@H](O)C2)cc1[C@@H]1NCCc2ccc(Cl)cc21 [subasumstat]?
T-cell infiltration in tumor ([1]; CPI-naïve cervical cancer and CPI-exposed melanoma and NSCLC samples): significant CD8^+ and CD4^+ T-cell infiltration; T-cell density in tumor ([1]; biopsies from three patients with MSS colorectal cancer): did not exhibit an increase in T-cell density; Activated CD11C+HLA-DR+ myeloid dendritic cells [1, 5]: increase in density; HLA class I expression on tumor cells [1, 5]: marked increase; T-cell activation (CD69 on CD4+ and CD8+ T cells) in tumor [1, 5]: significant increase in T-cell activation; PD-L1 CPS ([1]; paired tumor samples, C2D8): increased in most paired tumor samples; Regulatory T cells in tumor ([1]; same biopsies): no significant changes; Killing of tumor cell targets [2]: enhanced killing of tumor cell targets; Antitumor activity ([3]; immunocompromised mice): shows antitumor activity; SUMOylation in tumors ([3]; xenograft models): inhibits SUMOylation in tumors; Time of peak CD69+ effect after infusion ([4]; C1D1 and C1D8): 24 h; Dose from which percentage of CD69+ NK and T cells increased ([4]; peripheral blood, both dose schedules and study phases): ≥ 60 mg
